As a reminder, the GI50 is the concentration that inhibits growth by half.

From ChEMBL document CHEMBL1201862, “PubChem BioAssay data set” (2004) come the findings set out here.

Some test systems named below: Malme-3M; SF-539; K562; IGROV-1; OVCAR-4; SK-MEL-28; HCT-116; TK-10; UO-31; SK-MEL-2; SF-268; OVCAR-3; SF-295; MCF7; HL-60; HT-29; SNB-75; Hs-578T; HOP-92.
Common to all, as to assay: DTP human tumour cell line panel, 48 h

The structures appear in SMILES notation.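 Tested at 5 concentrations; 48 h exposure; 96-well plates; endpoints linearly interpolated, else capped at highest concentration. GI50 marks 50% less growth.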 Active and inactive are the calls of the source. No stated cut-off is given here; in the data, active = GI50 up to about 1.1 µM and inactive = higher.

Regarding `Oc1ccc(Cl)cc1Sc1cc(Cl)ccc1O` [FENTICLOR], the GI50 is 6.67 µM (inactive) in the experiment with Malme-3M; 17.7 µM (inactive) in the experiment with SF-539; 8.34 µM (inactive) in the experiment with K562; 15.1 µM (inactive) in the experiment on IGROV-1; 10 µM (inactive) in the experiment on OVCAR-4; 11.8 µM (inactive) with SK-MEL-28. Also, the GI50 in the experiment with HCT-116 is 7.11 µM (inactive); in the experiment with TK-10, 17.1 µM (inactive); in the experiment on UO-31 it was 6.78 µM (inactive); in the experiment with SK-MEL-2, 10.5 µM (inactive); with SF-268, 10.3 µM (inactive); in the experiment with OVCAR-3 it was 3.75 µM (inactive). Also, the GI50 in the experiment on SF-295 is 13.5 µM (inactive); with MCF7, 17.3 µM (inactive); with HL-60, 7.87 µM (inactive); with HT-29, 18 µM (inactive); with SNB-75, 16.2 µM (inactive); in the experiment with Hs-578T, 4.98 µM (inactive). The GI50 with HOP-92 is 3.15 µM (inactive).

Turning to `O=C1CC=C2C3CC4N(CCC45c4ccccc4N1C25)C/C3=C\CO` (stereo not drawn), the GI50 in the experiment on Malme-3M, in the experiment on SF-539, with K562, with IGROV-1, in the experiment on OVCAR-4 and in the experiment with SK-MEL-28 was > 100 µM (inactive) throughout. Moreover, the GI50 in the experiment on HCT-116, in the experiment on TK-10, in the experiment on UO-31, in the experiment with SK-MEL-2, in the experiment on SF-268 and in the experiment on OVCAR-3 was > 100 µM (inactive) throughout. The GI50 in the experiment with SF-295, in the experiment on MCF7, in the experiment with HL-60, in the experiment on HT-29, in the experiment with SNB-75 and in the experiment with Hs-578T was > 100 µM (inactive) in each case. The GI50 in the experiment with HOP-92 is > 100 µM (inactive).

As to `CCOC(=O)Nc1cc2ccccc2c(/N=N/c2ccccc2)c1O`, the GI50 with Malme-3M is 55.6 µM (inactive); in the experiment on SF-539, 13 µM (inactive); with K562, > 100 µM (inactive); in the experiment on IGROV-1, 59.7 µM (inactive); in the experiment with OVCAR-4 it was 20.2 µM (inactive); in the experiment with SK-MEL-28 it was > 100 µM (inactive). Further, the GI50 with HCT-116 is > 100 µM (inactive); in the experiment on TK-10 it was > 100 µM (inactive); in the experiment on UO-31, > 100 µM (inactive); in the experiment with SK-MEL-2, > 100 µM (inactive); with SF-268, 58.2 µM (inactive); with OVCAR-3, > 100 µM (inactive). The GI50 was 31.7 µM (inactive) in the experiment with SF-295; 56.4 µM (inactive) in the experiment with MCF7; > 100 µM (inactive) in the experiment with HL-60; > 100 µM (inactive) in the experiment on HT-29; 31 µM (inactive) in the experiment on SNB-75; 25.2 µM (inactive) in the experiment with Hs-578T. Also, the GI50 in the experiment on HOP-92 is 88.7 µM (inactive).

Take `O=C1CCCc2cc3c(cc21)CC1(C3)Cc2ccc3c(c2C1)C(=O)CCC3` (stereo not drawn): the GI50 in the experiment on Malme-3M is 9.4 µM (inactive); in the experiment with SF-539 it was 28.3 µM (inactive); with K562, 3.31 µM (inactive); with IGROV-1, 20.5 µM (inactive); with OVCAR-4, 13.9 µM (inactive); in the experiment with SK-MEL-28 it was 26.1 µM (inactive). The GI50 with HCT-116 was 12.2 µM (inactive); in the experiment with TK-10, 23.9 µM (inactive); in the experiment with UO-31, 32.4 µM (inactive); with SK-MEL-2 it was 24.2 µM (inactive); with SF-268, 21.9 µM (inactive); in the experiment with OVCAR-3, 15.9 µM (inactive). The GI50 is 18.5 µM (inactive) with SF-295; 12.2 µM (inactive) in the experiment with MCF7; 5.18 µM (inactive) with HL-60; 16.3 µM (inactive) in the experiment with HT-29; 15.5 µM (inactive) with SNB-75; 65.6 µM (inactive) with Hs-578T. In addition, in the experiment with HOP-92, the GI50 is 21.3 µM (inactive).

Regarding `O=c1[nH]nc(Cc2ccc(Cl)cc2)n1/N=C/c1ccc([N+](=O)[O-])o1`, the GI50 in the experiment on Malme-3M is 1.46 µM (inactive); in the experiment on SF-539, 2.21 µM (inactive); in the experiment with K562 it was 2.58 µM (inactive); with IGROV-1, 2.05 µM (inactive); with OVCAR-4, 2.73 µM (inactive); in the experiment on SK-MEL-28, 3.03 µM (inactive). Besides, the GI50 is 1.29 µM (inactive) in the experiment with HCT-116; 4.27 µM (inactive) in the experiment with TK-10; 2.16 µM (inactive) with UO-31; 3.38 µM (inactive) in the experiment on SK-MEL-2; 2.25 µM (inactive) in the experiment with SF-268; 0.53 µM (active) with OVCAR-3. Further, the GI50 in the experiment with SF-295 is 2.77 µM (inactive); in the experiment on MCF7 it was 1.75 µM (inactive); in the experiment on HL-60, 1.87 µM (inactive); in the experiment with HT-29, 2.21 µM (inactive); in the experiment with SNB-75, 7.13 µM (inactive); with Hs-578T, 2.25 µM (inactive). Further, the GI50 with HOP-92 is 4.57 µM (inactive).

Consider `CCCCCC(O)[C@H]1C(=O)C[C@@H](O[Si](C)(C)C(C)(C)C)[C@@H]1/C=C/CCOCc1ccccc1` (stereo partly drawn), for which the GI50 is 15.3 µM (inactive) in the experiment with Malme-3M; 4.23 µM (inactive) in the experiment on SF-539; > 36.5 µM (inactive) in the experiment with K562; 12.8 µM (inactive) with IGROV-1; 12.6 µM (inactive) in the experiment on OVCAR-4; 15.5 µM (inactive) in the experiment with SK-MEL-28. Also, the GI50 with HCT-116 is 6.9 µM (inactive); in the experiment with TK-10 it was 15.1 µM (inactive); in the experiment with UO-31, 14.5 µM (inactive); with SK-MEL-2 it was 15.5 µM (inactive); in the experiment with SF-268 it was 16.3 µM (inactive); in the experiment with OVCAR-3, 13.7 µM (inactive). Also, the GI50 is 2.39 µM (inactive) in the experiment with SF-295; 9.02 µM (inactive) in the experiment with MCF7; 2.35 µM (inactive) in the experiment with HL-60; 9.59 µM (inactive) in the experiment with HT-29; 17.8 µM (inactive) in the experiment on SNB-75; 7.19 µM (inactive) with Hs-578T. Also, the GI50 with HOP-92 is 12.4 µM (inactive).

For `CC(=O)n1cc(C2CC23N=C(c2ccccc2)OC3=O)c2ccccc21` (stereo not drawn), the GI50 with Malme-3M is 20.6 µM (inactive); in the experiment with SF-539 it was 19.5 µM (inactive); in the experiment on K562, 13.7 µM (inactive); in the experiment with IGROV-1 it was 16.8 µM (inactive); with OVCAR-4 it was 16.3 µM (inactive); in the experiment on SK-MEL-28, 19.7 µM (inactive). For the same compound, the GI50 in the experiment on HCT-116 was 14.4 µM (inactive); in the experiment on TK-10, 20 µM (inactive); in the experiment on UO-31 it was 15.5 µM (inactive); in the experiment on SK-MEL-2, 21.5 µM (inactive); with SF-268, 18.3 µM (inactive); with OVCAR-3, 18 µM (inactive). In addition, the GI50 is 36.7 µM (inactive) in the experiment on SF-295; 19.1 µM (inactive) in the experiment with MCF7; 2.04 µM (inactive) in the experiment with HL-60; 17.9 µM (inactive) with HT-29; 19 µM (inactive) in the experiment on SNB-75; 24.1 µM (inactive) in the experiment with Hs-578T. Also, the GI50 in the experiment with HOP-92 was 22.1 µM (inactive).
